According to patent US11814364B2, “Pyridine N-oxide derivatives useful as factor XIa inhibitors” (Janssen Pharmaceutica NV, priority 2021, dated 2023):
Read-outs that look alike come from different tables or passages of the source.

Experiments:
human plasma kallikrein = human plasma kallikrein (Homo sapiens, UniProt P03952); assay: Kallikrein inhibition FLINT assay with quenched AMC peptide substrate Z-Gly-Pro-Arg-AMC (end point EP or kinetic KIN reads); type: biochemical
Method in brief: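 Enzyme and compound were preincubated 30 min before adding 50 μM AMC substrate in pH 7.5 Tris/NaCl/CaCl2/BSA/CHAPS buffer. AMC release was read at 30 min endpoint or every 5 min.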

Factor XIa = Factor XIa (Homo sapiens, UniProt P03951); assay: Factor XIa inhibition FLINT assay with fluorophore-quencher peptide substrate 5Fam-[…]-K5Tamra (end point EP or kinetic KIN reads); type: biochemical; conditions: end point read at 30 min; read-out: FXIa (EP) IC50
Chain of Factor XIa (P03951 388-625 limits assumed): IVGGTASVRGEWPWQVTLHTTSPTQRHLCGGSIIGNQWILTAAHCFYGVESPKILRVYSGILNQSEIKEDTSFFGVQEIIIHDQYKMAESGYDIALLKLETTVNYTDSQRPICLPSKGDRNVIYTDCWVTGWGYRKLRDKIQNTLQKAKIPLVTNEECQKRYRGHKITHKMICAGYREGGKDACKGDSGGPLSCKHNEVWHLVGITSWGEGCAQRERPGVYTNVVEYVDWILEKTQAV
Chain of Factor XIa (P03951 19-387 partner limits assumed): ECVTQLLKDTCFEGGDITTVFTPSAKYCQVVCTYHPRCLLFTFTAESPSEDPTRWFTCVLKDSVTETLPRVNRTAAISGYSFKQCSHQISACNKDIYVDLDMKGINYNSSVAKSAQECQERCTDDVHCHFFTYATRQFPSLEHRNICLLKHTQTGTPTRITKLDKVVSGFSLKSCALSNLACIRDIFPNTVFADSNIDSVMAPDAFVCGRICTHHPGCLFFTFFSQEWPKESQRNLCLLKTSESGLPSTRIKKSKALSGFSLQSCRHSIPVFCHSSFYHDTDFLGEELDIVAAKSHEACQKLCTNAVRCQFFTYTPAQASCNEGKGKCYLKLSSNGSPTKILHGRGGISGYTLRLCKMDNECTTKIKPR
Text: Factor XIa inhibition assay utilizing a fluorophore-quencher pair peptide substrate A fluorescence intensity (FLINT) based assay was used to monitor inhibition of Factor XIa. The peptide substrate, 5Fam-[…]-K5Tamra (purchased from New England Peptide) was chosen based on the FXI sequence. Conversion of zymogen FXI to its activated form, FXIa, occurs by proteolytic cleavage by […] at two sites, Arg146 and Arg180. The custom peptide used in this assay was based on the Arg146 cleavage site of FXI. The peptide substrate was designed with a fluorophore-quencher pair, where the fluorescence is quenched until FXIa cleaves the 8-mer peptide after the Arg residue.
Test compound(s) were run in an 11-point, 3-fold serial dilution with a final top compound concentration of 100 nM. Final DMSO in assay was 2%. FXIa was preincubated with compound for 30-minutes and then substrate was added to initiate the reaction. The assay was run with either end point (EP) reads at 30 min or kinetic (KIN) reads at 5 min intervals over 30 minutes. […] More specifically, the assay was run as follows: • 100 nL of 0.01 mM test compound was dispensed into black 384-well non-binding Greiner BioOne 784900 plate for 0.1 μM final concentration; • 5 μL of 1× assay buffer was dispensed to column 24 (low control) and 5 μL 2× Factor XIa solution was dispensed to columns 1-23 (column 23 high control); • the plate was centrifuged with a “cover” plate at 500 rpm for 1 min • the plate was pre-incubated for 30 minutes at room temperature with plate covered; • 5 μL of 2×5Fam-[…]-K5Tamra peptide substrate was dispensed into the entire plate, columns 1-24; • the plate was centrifuged with a “cover” plate at 500 rpm for 1 min; • the plate was read monitoring fluorescence intensity on the BMG PHERAStar at room temperature, using fluorescence module 485 nm/520 nm.
Percent inhibition (IC50) curves were generated per compound tested, and data was analyzed using a 4-parameter logistic fit using GeneData Screener. The relative fluorescence unit (RFU) values were normalized to percent inhibition using the following equation: % inhibition=((HC−LC)−(compound−LC)/(HC−LC))*100
An 11-point dose response curve for the test compound(s) was generated using GENDATA to determine IC50 value based on the following equation: Y=Bottom+(Top−Bottom)/(1+10^((log IC50−X)*HillSlope))
Results listed in columns with […] designation were measured using endpoint reads where a single fluorescence reading was measured for each well at a 30 min timepoint.

[1] = end point read at 30 min, read-out: Kallikrein (EP) IC50
[2] = kinetic reads at 5 min intervals over 30 min, read-out: Kallikrein (KIN) IC50

Chain of human plasma kallikrein (P03952 391-638 limits assumed): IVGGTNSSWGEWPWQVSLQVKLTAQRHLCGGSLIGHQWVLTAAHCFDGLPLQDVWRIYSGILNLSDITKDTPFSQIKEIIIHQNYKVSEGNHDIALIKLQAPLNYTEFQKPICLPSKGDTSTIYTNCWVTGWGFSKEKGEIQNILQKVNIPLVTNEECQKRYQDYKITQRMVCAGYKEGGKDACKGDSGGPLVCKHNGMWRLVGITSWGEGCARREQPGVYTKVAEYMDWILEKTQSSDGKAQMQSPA
Chain of human plasma kallikrein (P03952 20-390 partner limits assumed): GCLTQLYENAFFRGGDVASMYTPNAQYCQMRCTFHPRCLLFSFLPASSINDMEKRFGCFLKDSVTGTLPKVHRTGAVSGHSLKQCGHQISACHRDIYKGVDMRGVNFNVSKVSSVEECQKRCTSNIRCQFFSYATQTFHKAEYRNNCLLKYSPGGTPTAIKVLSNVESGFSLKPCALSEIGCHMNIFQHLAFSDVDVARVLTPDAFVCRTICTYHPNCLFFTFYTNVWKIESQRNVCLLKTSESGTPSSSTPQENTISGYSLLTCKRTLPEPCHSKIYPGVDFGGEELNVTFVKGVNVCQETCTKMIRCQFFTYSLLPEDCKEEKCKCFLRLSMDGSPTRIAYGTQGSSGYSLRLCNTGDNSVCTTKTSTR

| Compound | IC50 (human plasma kallikrein; [1]) [nM] | IC50 (Factor XIa) [nM] | IC50 (human plasma kallikrein; [2]) [nM] |
| --- | --- | --- | --- |
| O=C(O)c1ccc(-c2cnn(C(c3cn(-c4ccccc4)nn3)c3ccc(-c4c(-n5cnnn5)ccc(Cl)c4F)c[n+]3[O-])c2)cc1 (stereo not drawn) [Example P35] | 800 | 169 | – |
| CC(N)c1ccc(-c2cnn(C(Cc3ccccc3)c3ccc(-c4cc(Cl)ccc4-n4cnnn4)c[n+]3[O-])c2)cc1 (stereo not drawn) [Example P47] | 405 | 22.2 | – |
| COC(=O)Nc1ccc(-c2cnn(C(Cc3ccc(F)cc3)c3ccc(-c4cc(Cl)ccc4C#N)c[n+]3[O-])c2)cc1 (stereo not drawn) [Example Q1] | 355 | 621 | – |
| COC(=O)Nc1ccc(-c2cnn(C(Cc3ccccc3)c3ccc(-c4cc(Cl)c(F)cc4-n4cnnn4)c[n+]3[O-])c2)cc1 (stereo not drawn) [Example P46] | 341 | 21.5 | – |
| CS(=O)(=O)NC(=O)c1ccc(-c2cnn(C(CC3CC3)c3ccc(-c4cc(Cl)ccc4-n4cnnn4)c[n+]3[O-])c2)cc1 (stereo not drawn) [Example P18] | 396 | 3.1 | – |
| O=C1OCc2cc(-c3cnn(C(CC4CC4)c4ccc(-c5cc(Cl)ccc5-n5cnnn5)c[n+]4[O-])c3)ccc21 (stereo not drawn) [Example P16] | 401 | 56.1 | – |
| Nc1ccc(-c2cnn(C(Cc3ccccc3)c3ccc(-c4cc(Cl)ccc4-n4cnnn4)c[n+]3[O-])c2)c(Cl)n1 (stereo not drawn) [Example P50] | 46.5 | 3.5 | – |
| O=C(O)c1cccc(-c2cnn(C(CC3CC3)c3ccc(-c4cc(Cl)ccc4-n4cnnn4)c[n+]3[O-])c2)c1 (stereo not drawn) [Example P3] | 98.2 | 9.4 | – |
| COC(=O)Nc1ccc(-c2cnn(C(CC3CC3)c3c(F)cc(-c4c(-n5cnnn5)ccc(Cl)c4F)c[n+]3[O-])c2)cc1 (stereo not drawn) [Example P30] | 57.3 | 3.3 | – |
| Nc1ccc(-c2cnn(C(CC3CC3)c3ccc(-c4cc(Cl)ccc4-n4cnnn4)c[n+]3[O-])c2)c(Cl)n1 (stereo not drawn) [Example P19] | 135 | 3.4 | – |
| COC(=O)Nc1ccc(-c2cnn(C(CC3CC3)c3ccc(-c4cc(Cl)ccc4-n4cc(Cl)nn4)c[n+]3[O-])c2)cc1 (stereo not drawn) [Example P14] | 966 | 94.4 | – |
| Nc1ccc(-c2cnn(C(CC3CC3)c3ccc(-c4cc(Cl)ccc4-n4cnnn4)c[n+]3[O-])c2)c(Cl)n1 (single isomer, unassigned) [Example P49] | 79.2 | 3.4 | – |
| [O-][n+]1cc(-c2cc(Cl)ccc2-n2cnnn2)ccc1C(Cc1ccc(F)cc1)n1cc(-c2ccc(F)cc2)cn1 (stereo not drawn) [Example P22] | 44.2 | 10 | – |
| O=C(O)c1ccc(-c2cnn([C@H](CC3CC3)c3ccc(-c4cc(Cl)ccc4-n4cnnn4)c[n+]3[O-])c2)cc1 [Example P6] | 65.8 | 2.1 | 85.2 |
| O=C(O)c1ccc(-c2cnn(C(CC3CC3)c3ccc(-c4cc(Cl)ccc4-n4cc(Cl)nn4)c[n+]3[O-])c2)cc1 (stereo not drawn) [Example P4] | 517 | 9.9 | – |
| COC(=O)Nc1ccc(-c2cnn(C(Cc3ccccc3)c3ccc(-c4cc(Cl)ccc4-n4cnnn4)c[n+]3[O-])c2)cc1 (stereo not drawn) [Example P39] | 25.8 | 3.8 | – |
| O=C(O)c1ccc(-c2cnn(C(CC3CC3)c3ccc(-c4cc(Cl)ccc4-n4cnnn4)c[n+]3[O-])c2)cc1 (stereo not drawn) [Example P1] | 124 | 2.6 | 157 |
| CC(C)(C)OCCC(c1ccc(-c2cc(Cl)ccc2-n2cnnn2)c[n+]1[O-])n1cc(-c2ccc(C(=O)O)cc2)cn1 (stereo not drawn) [Example P8] | 329 | 2.7 | – |
| CC1(C(=O)NCC(c2ccc(-c3cc(Cl)ccc3-n3cnnn3)c[n+]2[O-])n2cc(-c3ccnc(F)c3)cn2)CC1 (stereo not drawn) [Example P347] | – | – | 806 |
| Cn1ccc(C[C@H](c2ccc(-c3cc(Cl)ccc3OCC(F)(F)F)c[n+]2[O-])n2cc(-c3ccc(C(=O)O)cc3)cn2)n1 [Example Q58] | – | – | 517 |
| Cn1ncnc1-c1cnn([C@H](CCOC(F)F)c2ccc(-c3c(-n4cnnn4)ccc(Cl)c3F)c[n+]2[O-])c1 [Example P550] | – | – | 18 |
| COC(=O)Nc1ccc(-c2cnn(C(CC3CCC(C)CC3)c3ccc(-c4c(-n5cnnn5)ccc(Cl)c4F)c[n+]3[O-])c2)cc1 (stereo not drawn) [Example P129] | – | – | 136 |
| COc1cc(C(CC2CC2)n2cc(-c3ccnn3C)cn2)[n+]([O-])cc1-c1c(-n2cnnn2)ccc(Cl)c1F (single isomer, unassigned) [Example P490] | – | – | 16.3 |
| [O-][n+]1cc(-c2cc(Cl)ccc2-n2cnnn2)ccc1C(Cc1ccc(Cl)cc1)n1cc(-c2ccc(OC(F)(F)F)cc2)cn1 (stereo not drawn) [Example P150] | – | – | 397 |
| NC(=O)c1ccc(-c2cnn(C(Cc3ccn(C(F)F)n3)c3ccc(-c4c(C(F)F)ccc(Cl)c4F)c[n+]3[O-])c2)cc1 (single isomer, unassigned) [Example Q68] | – | – | 111 |
| COC(=O)Nc1ccc(-c2cnn(C(CN(C)C(=O)OC)c3ccc(-c4c(-n5cnnn5)ccc(Cl)c4F)c[n+]3[O-])c2)cc1 (stereo not drawn) [Example P476] | – | – | 21.6 |
| COCC[C@H](c1ccc(-c2c(C(F)F)ccc(Cl)c2F)c[n+]1[O-])n1cc(-c2ccc(C(=O)O)cc2)cn1 [Example Q34] | – | – | 50.5 |
| COc1cc(C(Cc2ccn(C(F)F)n2)n2cc(-c3ccc(C(N)=O)c(F)c3)cn2)[n+]([O-])cc1-c1cc(Cl)ccc1C(C)=O (single isomer, unassigned) [Example Q77] | – | – | 9.8 |
| COC(=O)Nc1ccc(-c2cnn(C(Cc3ccn(C)n3)c3ccc(-c4c(-n5cnnn5)ccc(Cl)c4F)c[n+]3[O-])c2)cc1 (single isomer, unassigned) [Example P328] | – | – | 0.4 |

More lines, now with the values ahead:

| IC50 (human plasma kallikrein; [1]) [nM] | IC50 (Factor XIa) [nM] | IC50 (human plasma kallikrein; [2]) [nM] | Compound |
| --- | --- | --- | --- |
| 114 | 4.9 | – | Nc1ccc(-c2cnn(C(CC3CC3)c3ccc(-c4c(-n5cnnn5)ccc(Cl)c4F)c[n+]3[O-])c2)cn1 (stereo not drawn) [Example P24] |
| 166 | 10.1 | – | Nc1ccc(-c2cnn(C(CC3CC3)c3ccc(-c4c(-n5cnnn5)ccc(Cl)c4F)c[n+]3[O-])c2)cc1 (stereo not drawn) [Example P21] |
| 37 | 0.29 | – | O=C(O)c1ccc(-c2cnn(C(CC3CC3)c3ccc(-c4c(-n5cnnn5)ccc(Cl)c4F)c[n+]3[O-])c2)cc1 (stereo not drawn) [Example P9] |
| 66.1 | 4.4 | – | CC(=O)Nc1ccc(-c2cnn(C(CC3CC3)c3ccc(-c4c(-n5cnnn5)ccc(Cl)c4F)c[n+]3[O-])c2)cc1 (stereo not drawn) [Example P23] |
| 749 | 9 | – | Nc1ccc(-c2cnn(C(CC3CC3)c3ccc(-c4c(-n5cnnn5)ccc(Cl)c4F)c[n+]3[O-])c2)c[n+]1[O-] (stereo not drawn) [Example P25] |
| – | – | 13.5 | O=C1CCCN1CC(c1ccc(-c2c(-n3cnnn3)ccc(Cl)c2F)c[n+]1[O-])n1cc(-c2ccnc(C(F)(F)F)c2)cn1 (single isomer, unassigned) [Example P364] |
| – | – | 14.5 | [O-][n+]1cc(-c2c(-n3cnnn3)ccc(Cl)c2F)ccc1C(Cn1cc(F)cn1)n1cc(-c2ccnn2C(F)F)cn1 (single isomer, unassigned) [Example P644] |
| – | – | 307 | CC(C)n1ccc(C[C@@H](c2ccc(-c3c(-n4cnnn4)ccc(Cl)c3F)c[n+]2[O-])n2cc(-c3ccnc(C(F)(F)F)c3)cn2)n1 [Example P651] |
| – | – | 27 | NC(=O)c1ccc(-c2cnn(C(Cc3ccn(C(F)F)n3)c3ccc(-c4c(-n5cnnn5)ccc(Cl)c4F)c[n+]3[O-])c2)cc1F (single isomer, unassigned) [Example P932] |
| – | – | 67.6 | [O-][n+]1cc(-c2c(-n3cnnn3)ccc(Cl)c2F)ccc1[C@H](Cc1ccc(F)cc1)n1cc(-c2ccnn2C(F)F)cn1 [Example P566] |
| – | – | 161 | O=c1ccccn1CC(c1ccc(-c2c(-n3cnnn3)ccc(Cl)c2F)c[n+]1[O-])n1cc(-c2cc[n+]([O-])c(C(F)F)c2)cn1 (single isomer, unassigned) [Example P373] |
| – | – | 31.8 | [O-][n+]1cc(-c2c(-n3cnnn3)ccc(Cl)c2F)ccc1C(CC1CC1)n1cc(-c2ccncc2)cn1 (single isomer, unassigned) [Example P262] |
| – | – | 32.7 | COC(=O)N(C)CC(c1ccc(-c2c(-n3cnnn3)ccc(Cl)c2F)c[n+]1[O-])n1cc(-c2ccncc2)cn1 (stereo not drawn) [Example P303] |
| – | – | 6.4 | [O-][n+]1cc(-c2c(-n3cnnn3)ccc(Cl)c2F)ccc1[C@@H](Cc1cn(C(F)F)nn1)n1cc(-c2ccnc(C(F)(F)F)c2)cn1 [Example P748] |
| – | – | 22.4 | O=C1CCCN1CC(c1ccc(-c2c(-n3cnnn3)ccc(Cl)c2F)c[n+]1[O-])n1cc(-c2cc[n+]([O-])cc2)cn1 (single isomer, unassigned) [Example P244] |
